Measurements: patent US20100029600A1, “DIHYDRO-TRITERPENES IN THE TREATMENT OF VIRAL INFECTIONS, CARDIOVASCULAR DISEASE, INFLAMMATION, HYPERSENSITIVITY OR PAIN” (priority 2001, published 2010)

How the values were obtained:
[1] = system: carrageenin-induced paw oedema; test: Carrageenin-induced paw oedema test in the rat, oral; format: in vivo; conditions: 150 mg/kg oral, p<0.05
Experimental: Carrageenin, the phlogistic agent of choice for testing antiinflammatory drugs, is a mucopolysaccharide derived from Irish sea moss, Chondrus. Ibuprofen is used as a positive control.
The test article is the composition according to the invention described in example 1 further modified so that the dihydro-triterpenes are predominantly in the form of fatty acid esters (Compound 2). Ibuprofen is obtained from Astion A/S, Denmark. The test article is dissolved in peanut oil, which is used as vehicle.
The study is performed in male SPF Sprague Dawley rats of the stock Mol:SPRD from M & B A/S, Tornbjergvej 40, DK-4623 Lille Skensved. At start of the acclimatisation period the rats are in the weight range of 80-100 g.
The test articles or vehicle are administered orally by gavage in volumes of 20 ml per kg body weight, 0-5 minutes before injection of carrageenin into the foot.
Carrageenin (from Sigma) is prepared as a 1% suspension in sterile 0.9% NaCl-solution. A volume of 0.1 ml is injected through a 25-gauge needle into the plantar tissue of the right hind paw of the rats within 5 minutes after treatment with the test articles.
Immediately before the dosing and carrageenin injection and three and five hours later the foot volume is measured using a plethysmometer LE 7500 from Letica Scientific Instruments, Spain.

[2] = system: TPA induced ear inflammation; test: TPA (phorbolester) induced ear oedema test in the mouse, topical; format: in vivo; conditions: 0.02 mg per application topical; 3 h after TPA; p<0.05

Which results are given for `CC(C)Cc1ccc(C(C)C(=O)O)cc1` (stereo not drawn) [ibuprofen, Ibuprofen]?
inhibition of paw oedema ([1]; after five hours): 88%; inhibition of paw oedema ([1]; after three hours): 81%

Which “inhibition of ear swelling” value [2] does the source give for `CCCC(=O)O[C@]1(C(=O)CO)CC[C@H]2[C@@H]3CCC4=CC(=O)CC[C@]4(C)[C@H]3[C@@H](O)C[C@@]21C` [Hydrocortisone 17-butyrate, hydrocortisone 17-butyrate] here?
Its value is 90%.
